Each molecule was assayed against human P2X3 receptor (Homo sapiens (Human), UniProt P56373) (assay: Evaluation of human P2X3 receptor inhibitory activity (Fluo-3 calcium fluorescence, FDSS 3000, ATP stimulation)). Conditions: C6BU-1 cells stably expressing human P2X3 receptor.
Type: cell-based
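Note: stimulus was 50 nM ATP with fluorescence followed for 3 min, and the response per well was peak post-ATP fluorescence divided by the reading at measurement start.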

Sequence of human P2X3 receptor (P56373 whole entry): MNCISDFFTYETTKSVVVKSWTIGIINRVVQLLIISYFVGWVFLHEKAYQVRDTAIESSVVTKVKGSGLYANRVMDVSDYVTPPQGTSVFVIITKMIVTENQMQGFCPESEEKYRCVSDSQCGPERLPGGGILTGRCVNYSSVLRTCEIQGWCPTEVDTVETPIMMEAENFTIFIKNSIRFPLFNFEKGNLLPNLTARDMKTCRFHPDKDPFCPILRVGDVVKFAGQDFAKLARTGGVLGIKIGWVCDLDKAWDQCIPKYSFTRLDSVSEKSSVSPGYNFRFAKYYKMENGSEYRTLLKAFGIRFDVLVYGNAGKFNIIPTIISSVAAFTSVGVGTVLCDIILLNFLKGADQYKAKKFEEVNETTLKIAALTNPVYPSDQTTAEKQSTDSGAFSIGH

Row | Structure (SMILES) | IC50 [nM]
1 | CCn1c(=O)[nH]/c(=N\c2ccc(Oc3ccc(C(=O)OC)nc3)cc2)n(Cc2ccc(Cl)cc2)c1=O [Compound I-2105] | 1
2 | Cc1cc(/N=c2\[nH]c(=O)n(Cc3cccn(CC(=O)O)c3=O)c(=O)n2Cc2ccc(Cl)cc2)ccc1OC(C)C [Compound I-0760] | 37
3 | CCOC(=O)CC(C)(C)n1c(=O)[nH]/c(=N\c2ccc(OC(C)C)c(Cl)c2)n(Cc2ccc(Cl)cc2)c1=O [Compound I-0810] | 16
4 | CCOC(=O)CCCn1c(=O)[nH]/c(=N\c2ccc3nc(C)sc3c2)n(Cc2ccc(C)cc2)c1=O [Compound I-2123] | 4
5 | COC(=O)[C@@H](C)[C@@H](C)n1c(=O)[nH]/c(=N\c2ccc(N3CCCCC3)cc2)n(Cc2ccc(C)cc2)c1=O [Compound I-1455] | 32
6 | CCn1c(=O)[nH]/c(=N\c2ccc(Oc3cccc4[nH]ncc34)c(Cl)c2)n(Cc2ccc(Cl)cc2)c1=O [Compound I-2196] | 446
7 | COC(=O)[C@@H](C)Cn1c(=O)[nH]/c(=N\c2cnc(OC3CCC3)c(Cl)c2)n(Cc2ccc(Cl)cc2)c1=O [Compound I-1399] | 50
8 | CCn1c(=O)[nH]/c(=N\c2ccc(Oc3ccnc(NC(C)=O)c3)cc2)n(Cc2ccc(Cl)cc2)c1=O [Compound I-2216] | 5
9 | CCOC(=O)CCn1c(=O)[nH]/c(=N\c2ccc(OC(C)C)c(F)c2)n(CC2CCCCCCC2)c1=O [Compound I-1911] | 253
10 | Cc1ccc(Cn2c(=O)n(CCC(=O)O)c(=O)[nH]/c2=N\c2ccc(Cl)cc2)cc1 [Compound I-2045] | 975
11 | CC(C)Oc1ccc(/N=c2\[nH]c(=O)n(Cc3noc(=O)[nH]3)c(=O)n2Cc2ccc(Cl)cc2)cc1F [Compound I-0601] | 31
12 | CCn1c(=O)[nH]/c(=N\c2ccc(OCC3(C(=O)O)CC3)cc2)n(Cc2ccc(Cl)cc2)c1=O [Compound I-2021] | 230
13 | CC(C)Oc1ccc(/N=c2\[nH]c(=O)n(CC(=O)NO)c(=O)n2Cc2ccc(Cl)cc2)cc1F [Compound I-0636] | 10
14 | Cc1ccc(Cn2c(=O)n(CCC(=O)O)c(=O)[nH]/c2=N\c2ccc(CC(C)C)c(C)c2)cc1 [Compound I-1224] | 54
15 | CCOC(=O)c1cnc(Oc2ccc(/N=c3\[nH]c(=O)n(CC)c(=O)n3Cc3ccc(Cl)cc3)cc2)o1 [Compound I-2187] | 44
16 | CCCOc1ccc(/N=c2\[nH]c(=O)n(C(C)(C)CC(=O)OCC)c(=O)n2Cc2ccc(Cl)cc2)cc1 [Compound I-0821] | 50
17 | COC(=O)[C@H](C)[C@H](C)n1c(=O)[nH]/c(=N\c2ccc(CC(C)C)c(OC)c2)n(Cc2ccc(C)cc2)c1=O [Compound I-1364] | 43
18 | CO[C@@H](Cn1c(=O)[nH]/c(=N\c2ccc(OC(C)C)c(C)c2)n(Cc2ccc(Cl)cc2)c1=O)C(=O)O [Compound I-0807, (S)-1-(4-chlorobenzyl)-6-(3-mehyl-4-isopropoxyphenylimino)-3-(2-hydroxycarbonyl-2-methoxyethyl)-1,3,5-triazinane-2,4-dion] | 13
19 | CCOC(=O)CCn1c(=O)[nH]/c(=N\c2ccc(CC(C)C)c(C)c2)n(Cc2ccc(Cl)cc2)c1=O [Compound I-1251] | 17
20 | CC(C)Oc1ccc(/N=c2\[nH]c(=O)n(CC(=O)NCCC3CCOCC3)c(=O)n2Cc2ccc(Cl)cc2)cc1Cl [Compound I-0666] | 8
21 | CNC(=NC#N)NCCn1c(=O)[nH]/c(=N\c2ccc(OC(C)C)c(F)c2)n(Cc2ccc(Cl)cc2)c1=O [Compound I-0653, 1-(4-chlorobenzyl)-6-(3-fluoro-4-isopropoxyphenylimino)-3-(4-cyanoimino-4-methylamino-3-azabutyl)-1,3,5-triazinane-2,4-dion] | 37
22 | O=c1[nH]/c(=N\c2ccc3nc(C(F)(F)F)sc3c2)n(Cc2ccc(Cl)cc2)c(=O)n1CCO [Compound I-2167] | 54
23 | Cc1ccc(Cn2c(=O)n(C[C@H](C)C(=O)O)c(=O)[nH]/c2=N\c2ccc(Oc3ccnc(O)c3)cc2)cc1 [Compound I-1440] | 6
24 | COCCOc1ccc(/N=c2\[nH]c(=O)n(C[C@H](C)C(=O)O)c(=O)n2Cc2ccc(Cl)cc2)cc1Cl [Compound I-0789] | 181
25 | Cc1[nH]c2ccc(/N=c3\[nH]c(=O)n(C[C@H]4COC(C)(C)O4)c(=O)n3Cc3ccc(Cl)cc3)cc2c1C [Compound I-2039] | 9
26 | Cc1ccc2cc(/N=c3\[nH]c(=O)n([C@@H](C)[C@@H](C)C(=O)O)c(=O)n3Cc3ccc(Cl)cc3)ccc2n1 [Compound I-1350] | 28
27 | CC(C)Oc1ccc(/N=c2\[nH]c(=O)n(CCC(=O)NN)c(=O)n2Cc2ccc(Cl)cc2)cc1F [Compound I-0644, 1-(4-chlorobenzyl)-6-(3-fluoro-4-isopropoxyphenylimino)-3-(2-hydrazinecarbonylethyl)-1,3,5-triazinane-2,4-dion] | 40

Same assay, conditions: C6BU-1 cells stably expressing human P2X3 receptor, Fluo-3 fluorescence, FDSS 3000

Row | Structure (SMILES) | IC50 [nM]
28 | CCc1nc2ccc(/N=c3\[nH]c(=O)n(CC)c(=O)n3Cc3ccc(Cl)cc3)cc2s1 [Compound I-1703] | 4
29 | Cc1nc2ccc(/N=c3\[nH]c(=O)n(CC(=O)O)c(=O)n3Cc3ccc(Cl)cc3)cc2s1 [Compound I-1610] | 251
30 | CC(C)Oc1ccc(/N=c2\[nH]c(=O)n(CCC(=O)O)c(=O)n2CC2(C)CCCCC2)cc1F [Compound I-1809] | 339
31 | CC(C)Oc1ccc(/N=c2\[nH]c(=O)n(Cc3cc(O)no3)c(=O)n2Cc2ccc(Cl)cc2)cc1F [Compound I-1767] | 55
32 | COc1cc(/N=c2\[nH]c(=O)n(C[C@H](C)C(=O)O)c(=O)n2Cc2ccc(C)cc2)ccc1OC(C)C [Compound I-1135] | 18
33 | COC(=O)[C@@H](C)Cn1c(=O)[nH]/c(=N\c2ccc(OC3CCOCC3)cc2)n(Cc2ccc(C)cc2)c1=O [Compound I-1073] | 92
34 | Cc1ccc(Cn2c(=O)n(C[C@H](C)C(=O)O)c(=O)[nH]/c2=N\c2ccc(Oc3ccncc3)cc2)cc1 [Compound I-1122] | 8
35 | COC(=O)[C@@H](C)Cn1c(=O)[nH]/c(=N\c2ccc(OCC(C)(C)C)cc2)n(Cc2ccc(C)cc2)c1=O [Compound I-1050] | 389
36 | CCOC(=O)CCn1c(=O)[nH]/c(=N\c2ccc(OC[C@@H](C)CC)cc2)n(Cc2ccc(C)cc2)c1=O [Compound I-1051] | 100
37 | CCc1oc2ccc(/N=c3\[nH]c(=O)n(CC(C)(C)C(=O)O)c(=O)n3Cc3ccc(Cl)cc3)cc2c1C [Compound I-1581] | 7
38 | CCc1nc2ccc(/N=c3\[nH]c(=O)n(CC(C)(C)C(=O)OC)c(=O)n3Cc3ccc(Cl)cc3)cc2s1 [Compound I-1572] | 5
39 | CCCc1nc2ccc(/N=c3\[nH]c(=O)n(CCC(=O)O)c(=O)n3Cc3ccc(C)cc3)cc2s1 [Compound I-1560] | 51
40 | CCOC(=O)CCn1c(=O)[nH]/c(=N\c2ccc(OC(C)C)c(C)c2)n(Cc2ccc(Cl)cc2)c1=O [Compound I-1155] | 9
41 | C=Cc1ccc(Cn2c(=O)n(C[C@H](C)C(=O)O)c(=O)[nH]/c2=N\c2ccc(OC(C)C)c(C)c2)cc1 [Compound I-0897, (S)-1-(4-vinylbenzyl)-6-(3-mehyl-4-isopropoxyphenylimino)-3-(2-hydroxycarbonylpropyl)-1,3,5-triazinane-2,4-dion] | 25
42 | O=C(NCCO)c1cc(Oc2ccc(/N=c3\[nH]c(=O)[nH]c(=O)n3Cc3ccc(Cl)cc3)cc2)ccn1 [Compound I-1897] | 24
43 | Cc1ccc(Cn2c(=O)n([C@@H](C)[C@@H](C)C(=O)O)c(=O)[nH]/c2=N\c2ccc(OC(C)C)c(C)c2)cc1 [Compound I-0930] | 30
44 | COC(=O)[C@@H](C)Cn1c(=O)[nH]/c(=N\c2ccc(C=C3CCCC3)cc2)n(Cc2ccc(C)cc2)c1=O [Compound I-1094] | 103

Same assay, conditions: human P2X3 receptor, Test Example 1

Row | Structure (SMILES) | IC50 [nM]
45 | CC(=O)NCCn1c(=O)[nH]/c(=N\c2ccc(Oc3ccon3)cc2)n(Cc2ccc(Cl)cc2)c1=O [Compound I-2524] | 34
46 | CC(C)Cc1ccc(/N=c2\[nH]c(=O)n(C[C@H](C)C(=O)O)c(=O)n2Cc2ccc(Cl)cn2)cc1Cl [Compound I-1540] | 52
47 | CC[C@H](C)n1c(=O)[nH]/c(=N\c2ccc(Oc3cncc(C(=O)O)c3)cc2)n(Cc2ccc(Cl)cc2)c1=O [Compound I-2481] | 8
48 | O=C(O)c1cncc(Oc2ccc(/N=c3\[nH]c(=O)n(C4CCC4)c(=O)n3Cc3ccc(Cl)cc3)cc2)c1 [Compound I-2485] | 8
49 | C[C@H](Cn1c(=O)[nH]/c(=N\c2ccc(N3CCCCC3)cc2)n(Cc2ccc(Cl)cc2)c1=O)C(=O)O [Compound I-1486] | 43
50 | CCCOc1ccc(/N=c2\[nH]c(=O)n(CC(F)(F)C(=O)OCC)c(=O)n2Cc2ccc(C)cc2)cc1 [Compound I-0859] | 17
51 | CCn1c(=O)[nH]/c(=N\c2ccc(Oc3cncc(C(=O)O)n3)cc2)n(Cc2ccc(C)cc2)c1=O [Compound I-2474] | 7
52 | CCc1cc2cc(/N=c3\[nH]c(=O)n(CCCOC4CCCCO4)c(=O)n3Cc3ccc(Cl)cc3)ccc2o1 (centres unmarked) [Compound I-2335] | 6
53 | CCn1c(=O)[nH]/c(=N\c2ccc(Oc3cccc(C#N)n3)cc2)n(Cc2ccc(Cl)cc2)c1=O [Compound I-2302] | 2
54 | COCCn1c(=O)[nH]/c(=N\c2ccc(Oc3cccc(C(=O)O)n3)cc2)n(Cc2ccc(Cl)cc2)c1=O [Compound I-2548] | 6
55 | CC[C@@H](Cn1c(=O)[nH]/c(=N\c2ccc(OC(C)C)c(C)c2)n(Cc2ccc(C)cc2)c1=O)C(=O)OC [Compound I-0884] | 16
56 | CCn1c(SC)n/c(=N\c2ccc(Oc3cncc(C(=O)OC)c3)cc2)n(Cc2ccc(Cl)cc2)c1=O [Compound I-2264, 1-(4-chlorobenzyl)-3-ethyl-4-methylthio-6-[4-(5-methoxycarbonyl-3-pyridyloxy)phenylimino]-1,3,5-triazine-2-(1H)-one] | 558
57 | Cn1c(=O)[nH]/c(=N\c2ccc(Oc3cc(C(=O)O)n[nH]3)cc2)n(Cc2ccc(Cl)cc2)c1=O [Compound I-2411] | 166
58 | CCn1c(=O)[nH]/c(=N\c2ccc(Oc3cc(C(=O)O)sn3)cc2)n(Cc2ccc(Cl)cc2)c1=O [Compound I-2249] | 6
59 | CCn1c(=O)[nH]/c(=N\c2ccc(Oc3ncccc3C(=O)O)cc2)n(Cc2ccc(Cl)cc2)c1=O [Compound I-2366] | 90

Source: US9718790B2, “Triazine derivative and pharmaceutical composition having an analgesic activity comprising the same” (SHIONOGI & CO., LTD., priority 2010, dated 2017)
